# Data from ChEMBL document CHEMBL3525933 (Drug Metab Dispos, 2012).
# Columns and labels:
# [1] = tested on: Plasma; experiment: Drug metabolism in Wistar rat plasma assessed as retention time by HPLC-DAD analysis; type: ADME, cell-free
# [2] = tested on: Plasma; experiment: Drug recovery in Wistar rat plasma at 2000 ng/ml by HPLC-DAD analysis; type: ADME, cell-free
smiles,measurement,setting,value
O=c1c(-c2ccc(O)cc2)coc2cc(O[C@@H]3O[C@H](CO)[C@@H](O)[C@H](O)[C@H]3O)ccc12 [DAIDZIN],Retention_time,[1],9.5 min
same,Drug recovery,[2],85.1%
